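Values below derive from 48-hour exposures of cells grown in 96-well plates, with endpoints linearly interpolated between the two concentrations bracketing the appropriate inhibition level. GI50: concentration for 50% inhibition of growth.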 The source made the active and inactive calls. No stated cut-off is given here; in the data, active = GI50 up to about 1.1 µM and inactive = higher.
What was measured:
Test in all cases: NCI anticancer screen, dose series, 48 h
CCRF-CEM = test system: CCRF-CEM
HOP-92 = test system: HOP-92
MOLT-4 = test system: MOLT-4
NCI-H23 = test system: NCI-H23
NCI-H460 = test system: NCI-H460
OVCAR-3 = test system: OVCAR-3
OVCAR-4 = test system: OVCAR-4
OVCAR-8 = test system: OVCAR-8
SF-295 = test system: SF-295
SK-OV-3 = test system: SK-OV-3
SN12C = test system: SN12C
SNB-19 = test system: SNB-19
SNB-75 = test system: SNB-75
TK-10 = test system: TK-10
U-251 = test system: U-251
UACC-257 = test system: UACC-257
UACC-62 = test system: UACC-62
EKVX = test system: EKVX
HCC 2998 = test system: HCC 2998
SF-268 = test system: SF-268

Measured: GI50

Nc1nc(Cl)nc2c1ncn2C1CCC(CO)O1 (centres undefined)
inactive: CCRF-CEM 3.46 µM | HOP-92 > 100 µM | MOLT-4 35.2 µM | NCI-H23 87.9 µM | NCI-H460 > 100 µM | OVCAR-3 > 100 µM | OVCAR-4 > 100 µM | OVCAR-8 41.6 µM | SF-295 > 100 µM | SK-OV-3 > 100 µM | SN12C 95.7 µM | SNB-19 > 100 µM | SNB-75 > 100 µM | TK-10 > 100 µM | U-251 > 100 µM | UACC-257 > 100 µM | UACC-62 > 100 µM

Nc1ccc2c(c1)C(=O)N(O)C2=O
inactive: CCRF-CEM > 100 µM | EKVX > 100 µM | HCC 2998 92 µM | MOLT-4 > 100 µM | NCI-H23 > 100 µM | NCI-H460 > 100 µM | OVCAR-3 > 100 µM | OVCAR-4 > 100 µM | SF-268 > 100 µM | SF-295 > 100 µM | SK-OV-3 > 100 µM | SN12C > 100 µM | SNB-19 > 100 µM | SNB-75 > 100 µM | TK-10 > 100 µM | U-251 > 100 µM | UACC-257 > 100 µM | UACC-62 > 100 µM

CN(C)/C(=N\C#N)NCc1ccccc1
inactive: EKVX > 100 µM | HCC 2998 > 100 µM | HOP-92 > 100 µM | NCI-H23 > 100 µM | NCI-H460 > 100 µM | OVCAR-3 > 100 µM | OVCAR-4 > 100 µM | OVCAR-8 > 100 µM | SF-268 > 100 µM | SF-295 > 100 µM | SK-OV-3 > 100 µM | SN12C > 100 µM | SNB-19 > 100 µM | TK-10 > 100 µM | U-251 > 100 µM | UACC-257 > 100 µM | UACC-62 > 100 µM

CCCCC(=O)c1c(O)nc2sccn2c1=O
inactive: CCRF-CEM > 10 µM | EKVX > 10 µM | HCC 2998 > 10 µM | MOLT-4 > 10 µM | NCI-H23 > 10 µM | NCI-H460 > 10 µM | OVCAR-3 > 10 µM | OVCAR-4 > 10 µM | OVCAR-8 > 10 µM | SF-268 > 10 µM | SF-295 > 10 µM | SK-OV-3 > 10 µM | SN12C > 10 µM | SNB-19 > 10 µM | SNB-75 > 10 µM | TK-10 > 10 µM | U-251 > 10 µM | UACC-62 > 10 µM

CC(C)(C)[Si](C)(C)OCC1OC(n2cnc3c(N)ncnc32)CC1O (centres undefined)
inactive: CCRF-CEM 22.6 µM | MOLT-4 16.1 µM | NCI-H23 79.4 µM | NCI-H460 97.5 µM | OVCAR-3 51.2 µM | OVCAR-4 71.4 µM | OVCAR-8 87.9 µM | SF-295 > 100 µM | SK-OV-3 81.5 µM | SN12C > 100 µM | SNB-19 > 100 µM | SNB-75 > 100 µM | TK-10 > 100 µM | U-251 > 100 µM | UACC-257 > 100 µM | UACC-62 36.9 µM

Cc1ccc(Nc2nc(C)c(C(=O)CC(=O)C(=O)Nc3c(C)cccc3C(C)(C)C)s2)cc1
inactive: CCRF-CEM > 100 µM | EKVX > 100 µM | HCC 2998 > 100 µM | HOP-92 > 100 µM | MOLT-4 > 100 µM | NCI-H23 > 100 µM | NCI-H460 > 100 µM | OVCAR-3 > 100 µM | OVCAR-4 > 100 µM | OVCAR-8 79.3 µM | SF-268 > 100 µM | SF-295 > 100 µM | SK-OV-3 > 100 µM | SN12C > 100 µM | SNB-19 > 100 µM | TK-10 > 100 µM | U-251 71.8 µM | UACC-257 > 100 µM | UACC-62 > 100 µM

CSc1nc(Cl)c2c(n1)Sc1ncnn1C2O (centres undefined)
inactive: CCRF-CEM 1.56 µM | EKVX 17.2 µM | HCC 2998 13.6 µM | HOP-92 12.6 µM | MOLT-4 6.7 µM | NCI-H23 14.2 µM | NCI-H460 21 µM | OVCAR-3 7.31 µM | OVCAR-4 15 µM | OVCAR-8 2.82 µM | SF-268 6.61 µM | SK-OV-3 27.3 µM | SN12C 11 µM | SNB-19 28 µM | TK-10 17.2 µM | U-251 14.9 µM | UACC-257 19.5 µM | UACC-62 12.6 µM

C[n+]1c(-c2ccc(/C=N/Nc3n[nH]c(=S)n3N/N=C/c3ccc(-c4cn5ccccc5[n+]4C)cc3)cc2)cn2ccccc21
inactive: CCRF-CEM > 100 µM | EKVX > 100 µM | HCC 2998 > 100 µM | MOLT-4 > 100 µM | NCI-H460 > 100 µM | OVCAR-4 > 100 µM | OVCAR-8 > 100 µM | SF-268 > 100 µM | SF-295 > 100 µM | SK-OV-3 > 100 µM | SN12C > 100 µM | SNB-19 > 100 µM | SNB-75 > 100 µM | TK-10 > 100 µM | U-251 > 100 µM | UACC-257 > 100 µM

Source: ChEMBL document CHEMBL1201862, “PubChem BioAssay data set” (2004)
